# Assay results as given in US20090060944A1, “Enhancer Of The Effect Of Adrenocorticoid,Comprising Gum Arabic” (priority 2004, published 2009).
# Columns and labels:
# Assay type in all cases: in vivo, Male Wistar strain rats
# [1] = tested on: GM-induced nephritis rats; assay: BUN, serum creatinine and creatinine clearance in GM-induced nephritis rats; conditions: 8th day; for Effect on BUN level (in words): GM-induced nephritis rats; for BUN / Creatinine clearance / Serum creatinine: mean ± S.E. of 8 to 9 rats
# Description: (§1) Gum Arabic was dissolved in water and filtered. The filtrate was spray-dried at about 120° C. to give the GA used in this experiment. GA was dissolved in tap water to prepare a 7.5% GA solution (7.5 g/100 mL, 7.5% GA). The 7.5% GA solution was used for oral administration in drinking water. Gentamicin sulfate (GM) was purchased from Sigma Chemical Co. and used as its saline solution. Prednisolone (PRD) was purchased from Sigma Chemical Co.
# (§2) Male Wistar strain rats weighing 200-220 g (n=8 to 9 per group) were provided by SLC (Japan SLC, Hamamatsu). They were maintained in an air-conditioned room with lighting from 7 a.m. to 7 p.m. The room temperature (about 23° C.) and humidity (about 60%) were controlled automatically. They were kept for one week before treatment. Laboratory chows (Labo MR Stock, Nihon Nosan Kogyo K.K., Yokohama) and drinking water were freely available.
# (§3) Nephritis was induced in rats by daily intraperitoneal injections of GM (80 mg/kg, i.p.) at 10:00 a.m. for 8 consecutive days. Animals injected with saline (1 mL/kg, i.p.) served as normal control. GA (7.5% GA) via the drinking water was administered for 8 consecutive days.
# (§4) Rats were randomly assigned to the following eight groups of 8 to 9 rats each:
# (§5) Group 1 (Normal): received daily intraperitoneal injections of saline (1 mL/kg, i.p.) for 8 days with tap water as drinking water.
# (§6) Group 2 (7.5% GA): received daily saline (1 mL/kg, i.p.) and 7.5% GA via drinking water for 8 days.
# (§7) Group 3 (GM): received daily GM (80 mg/kg, i.p.) for 8 days with tap water as drinking water.
# (§8) Group 4 (GM+7.5% GA): received daily GM (80 mg/kg, i.p.) and 7.5% GA via the drinking water for 8 days.
# (§9) Group 5 (GM+PRD/water): received daily PRD/water (2 mg/kg, p.o.) at 1 hr before daily GM (80 mg/kg, i.p.) administration for 8 days with tap water as drinking water.
# (§10) Group 6 (GM+PRD/water+7.5% GA): received daily PRD/water (2 mg/kg, p.o.) at 1 hr before daily GM (80 mg/kg, i.p.) administration and 7.5% GA via the drinking water for 8 days.
# (§11) 24 hr urine samples were obtained by keeping each animal in an individual metabolic cage for 24 hr at 10:00 a.m. on the 8th day. Rats were fasted for 1 day before urine collection. The collected urine was then centrifuged at 1,600×g for 10 min, and the supernatant was used for protein determination. Immediately after the urine collection, blood sample was taken from abdominal veins. The blood was centrifuged at 1,600×g for 10 min to give serum for the determination of blood urea nitrogen (BUN), serum creatinine and creatinine clearance.
# (§12) The urinary protein excretion was determined by the method of Kingsbury et al (The Journal of Laboratory and Clinical Medicine, 11, 981-989, 1926) and expressed as mg/day. Briefly, a 3% solution of sulfosalicylic acid was added to a diluted urine sample, and placed at room temperature for 10 minutes. Then concentrations of urinary protein were determined from absorbance at 400 nm, and the urinary protein excretion (mg/day) was calculated from the volume of 24 hr urine. Commercial kits (Wako Pure Chemical Industries, Ltd.) were used to assay BUN, creatinine and creatinine clearance in serum with the following assay kits: Urea nitrogen B and Creatinine.
# (§13) The experimental data were tested for statistical significant differences by means of Bonferroni/Dunn's method (Multiple Range Test).
# (§14) PRD (2 mg/kg, p.o.) was orally administered in a form of suspension (0.2 mL/100 g weight of rat) in tap water (PRD/water) 1 hr before GM (80 mg/kg, i.p.) administration to rats of group 5 (GM+PRD/water) and group 6 (GM+PRD/water+7.5% GA). Group 5 received tap water as drinking water. Group 6 received 7.5% GA as drinking water.
# [2] = tested on: GM-induced nephritis rats; assay: Urine volume and urinary protein in GM-induced nephritis rats; conditions: 8th day; for Effect on urinary protein (in words) / Effect on urine volume (in words): GM-induced nephritis rats; for Urinary protein / Urine volume: mean ± S.E. of 8 to 9 rats, 7.5% GA via drinking water
# Description: as §1, §2, §3, §4, §5, §6, §7, §8, §9, §10, §11, §12, §13, §14
# [3] = tested on: GM-induced nephritis rats; assay: Organ wet weight / body weight ratio in GM-induced nephritis rats; conditions: for Adrenal gland weight / Kidney weight / Liver weight / Spleen weight / Thymus weight: 8th day, mean ± S.E. of 8 to 9 rats, GM 80 mg/kg i.p., 7.5% GA via drinking water
# Description: as §1, §2, §3, §4, §5, §6, §7, §8, §9, §10
# On the last day, the organs (adrenal gland, thymus, spleen, kidney and liver) were isolated from the rats, and the ratio of each organ wet weight (mg)/body weight (100 g) was determined.
# as §13, §14
# [4] = Table 1, GM 80 mg/kg i.p. 8 days, 7.5% GA via drinking water, 7.5% GA group got saline, no GM
# [5] = Table 4, GM 80 mg/kg i.p., PRD 2 mg/kg p.o. 1 hr before GM, 7.5% GA via drinking water
# [6] = Table 2, GM 80 mg/kg i.p. 8 days, 7.5% GA group got saline, no GM
# [7] = Table 5, GM 80 mg/kg i.p., PRD 2 mg/kg p.o. 1 hr before GM
compound,measurement,setting,value
Gentamicin sulfate [GM],Effect on BUN level (in words),[1],markedly increased
same,BUN,"[1]; Table 1, GM 80 mg/kg i.p. 8 days, 7.5% GA via drinking water 8 days, 7.5% GA group got saline, no GM",78.0 ± 11.9 mg/dL
same,Creatinine clearance,[1]; [4],0.19 ± 0.10 mL/min
same,Serum creatinine,[1]; [4],2.36 ± 0.41 mg/dL
same,BUN,[1]; [5],78.0 ± 11.9 mg/dL
same,Creatinine clearance,[1]; [5],0.19 ± 0.10 mL/min
same,Serum creatinine,[1]; [5],2.36 ± 0.41 mg/dL
same,Effect on urinary protein (in words),[2],increased
same,Effect on urine volume (in words),[2],increased
same,Urinary protein,[2]; [6],26.7 ± 3.3 mg/24 hr
same,Urine volume,[2]; [6],43.1 ± 4.3 mL/24 hr
same,Urinary protein,[2]; [7],26.7 ± 3.3 mg/24 hr
same,Urine volume,[2]; [7],43.1 ± 4.3 mL/24 hr
same,Effect on kidney weight ratio (in words),"[3]; GM-induced nephritis rats, last day",slightly increased
same,Effect on weight of thymus (in words),"[3]; GM-induced nephritis rats, last day, side-effect of PRD",tendency to decrease
same,Adrenal gland weight,[3]; Table 3,23.5 ± 1.4 mg/100 g of body weight
same,Kidney weight,[3]; Table 3,0.89 ± 0.03 g/100 g of body weight
same,Liver weight,[3]; Table 3,2.95 ± 0.07 g/100 g of body weight
same,Spleen weight,[3]; Table 3,209.4 ± 10.8 mg/100 g of body weight
same,Thymus weight,[3]; Table 3,223.5 ± 15.2 mg/100 g of body weight
same,Adrenal gland weight,"[3]; Table 6, PRD 2 mg/kg p.o.",23.5 ± 1.4 mg/100 g of body weight
same,Kidney weight,"[3]; Table 6, PRD 2 mg/kg p.o.",0.89 ± 0.03 g/100 g of body weight
same,Liver weight,"[3]; Table 6, PRD 2 mg/kg p.o.",2.95 ± 0.07 g/100 g of body weight
same,Spleen weight,"[3]; Table 6, PRD 2 mg/kg p.o.",209.4 ± 10.8 mg/100 g of body weight
same,Thymus weight,"[3]; Table 6, PRD 2 mg/kg p.o.",223.5 ± 15.2 mg/100 g of body weight
"C[C@]12C=CC(=O)C=C1CC[C@@H]1[C@@H]2[C@@H](O)C[C@@]2(C)[C@H]1CC[C@]2(O)C(=O)CO [PRD, Prednisolone]",Effect on BUN level (in words),[1],significant protective effect on increments of BUN level
same,Effect on urinary protein (in words),[2],significantly inhibited the increment of urinary protein
same,Effect on urine volume (in words),[2],did not show any effects on the increment of urine volume
same,Effect on weight of thymus (in words),"[3]; rat, in vivo",further decreased
